Test results as given in the NIST ThermoML archive (doi:10.1021/je500977g).

Experiments:
[1] = mn = molality of the nth substance listed, in mol/kg; conditions: Liquid, m2 = 0
[2] = Liquid, Vibrating tube method

O [water] + C[N+](C)(C)[O-]
mass density [kg/m3], [1]
Conditions | 278.15 K | 288.15 K | 298.15 K | 308.15 K | 323.15 K
101 kPa, Vibrating tube method | 999.96 | – | – | – | 988.03
10000 kPa, Constant-volume piezometry | 1004.78 | 1003.67 | 1001.47 | 998.36 | 992.31
25000 kPa, Constant-volume piezometry | 1011.88 | 1010.42 | 1007.99 | 1004.75 | 998.61
50000 kPa, Constant-volume piezometry | 1023.2 | 1021.21 | 1018.44 | 1014.97 | 1008.68
75000 kPa, Constant-volume piezometry | 1033.92 | 1031.47 | 1028.38 | 1024.71 | 1018.27
100000 kPa, Constant-volume piezometry | 1044.08 | 1041.23 | 1037.86 | 1034 | 1027.42

O [water]
mass density [kg/m3], [2]
Conditions | 101 kPa | 10000 kPa | 25000 kPa | 50000 kPa | 75000 kPa | 100000 kPa
278.15 K | 999.96 | 1004.78 | 1011.88 | 1023.2 | 1033.92 | 1044.08
288.15 K | – | 1003.67 | 1010.42 | 1021.21 | 1031.47 | 1041.23
298.15 K | – | 1001.47 | 1007.99 | 1018.44 | 1028.38 | 1037.86
308.15 K | – | 998.36 | 1004.75 | 1014.97 | 1024.71 | 1034
323.15 K | 988.03 | 992.31 | 998.61 | 1008.68 | 1018.27 | 1027.42
